Results published in patent US20110118226A1 (priority 2008, published 2011).

How the values were obtained:
[1] = cited from earlier work
[2] = Stability of danazol in analysis medium and receptor phase (3% cetrimide solution); type: physicochemical; details: analysis medium (mobile phase) and receptor phase (3% cetrimide solution)

Time for which danazol was stable [2]: 30 h
Structure (SMILES): C#C[C@]1(O)CC[C@H]2[C@@H]3CCC4=Cc5oncc5C[C@]4(C)[C@H]3CC[C@@]21C [Danazol, (17α)-Pregna-2,4-dien-20-yno[2,3-d]isoxazol-17β-ol]
Bioavailability of oral danazol [1]: 11%
